Experiments:
Desulfovibrio vulgaris = experiment: Log10 reduction of viable anaerobic bacteria in dosed high-TDS suspension (serial dilution into API RP 38 media vials); type: cell-based; conditions: pH 7 phosphate buffer, room temperature, ppm per example
Procedure: (§1) A suspension of Desulfovibrio vulgaris plus Enterobacter aerogenes bacteria containing from 1×10^6 to 1×10^8 cells/mL was prepared in sterile pH 7 phosphate buffer containing varying levels of sodium chloride to give the desired total dissolved solids (TDS) concentration. Aliquots of this suspension were dosed with the indicated concentrations of phosphonium compound (a) and stabilised halogen containing composition (b) with the concentrations being measured as ppm by weight of the stated composition in the dosed suspension. The mixtures were allowed to stand at room temperature. At the designated contact times, each mixture was sampled to determine the total number of viable cells of both Desulfovibrio vulgaris and Enterobacter aerogenes by serial 10-fold dilution into API RP 38 media vials and anaerobic acid producing media vials, respectively. The vials were incubated at 37° C. for 72 hours. Results were recorded as cells per milliliter. […]
(§2) The efficacy of the treatment agents was evaluated by measuring the Log 10 Reduction of the anaerobic bacterium Desulfovibrio vulgaris and the facultative anaerobeic bacterium Enterobacter aerogenes after contact times of 1 hour and 24 hours as detailed in Tables 1 and 2. […]

Enterobacter aerogenes = experiment: Log10 reduction of viable facultative anaerobic bacteria in dosed high-TDS suspension (serial dilution into anaerobic acid producing media vials); type: cell-based; conditions: pH 7 phosphate buffer, room temperature, ppm per example
Procedure: as §1, §2

[1] = TDS 100,000 mg l^-1, contact time 1 hour
[2] = TDS 100,000 mg l^-1, contact time 24 hours

| Structure (SMILES) | Log10 Reduction Anaerobes (Desulfovibrio vulgaris; [1]) | Log10 Reduction Facultative Anaerobes (Enterobacter aerogenes; [1]) | Log10 Reduction Anaerobes (Desulfovibrio vulgaris; [2]) | Log10 Reduction Facultative Anaerobes (Enterobacter aerogenes; [2]) |
| --- | --- | --- | --- | --- |
| CCCCCCCCCCCCCC[P+](CCCC)(CCCC)CCCC.[Cl-] [Example 3, tri n-butyl n-tetradecyl phosphonium chloride] | 0 | 0 |  |  |
| CCCCCCCCCCCCCC[P+](CCCC)(CCCC)CCCC.[Cl-] [Example 17, tri n-butyl n-tetradecyl phosphonium chloride] |  |  | 0 | 0 |

From patent US20160102002A1, “WATER TREATMENT” (BWA WATER ADDITIVES UK LIMITED, priority 2014, published 2016)
